Results reported in patent publication US20220119411A1, “IMMUNOMODULATORS, COMPOSITIONS AND METHODS THEREOF” (BETTA PHARMACEUTICALS CO., LTD, priority 2018, published 2022).

Molecular target: T1, PD-1/PD-L1 protein/protein interaction (Homo sapiens, UniProt Q9NZQ7)
T1 construct: Recombinant human PD-L1 protein (19-238) with a His-tag at the C-terminus; purchased AcroBiosystems PD1-H5229 (PD-L1); PD1-H5257 (PD-1)
Assay: PD-1/PD-L1 homogenous time-resolved fluorescence (HTRF) binding assay
Conditions: recombinant human PD-L1 (19-238)-His 10 nM, human PD-1 (25-167)-Fc 3 nM, 25° C., PBS pH 7.4

T1 sequence (Q9NZQ7 19-238): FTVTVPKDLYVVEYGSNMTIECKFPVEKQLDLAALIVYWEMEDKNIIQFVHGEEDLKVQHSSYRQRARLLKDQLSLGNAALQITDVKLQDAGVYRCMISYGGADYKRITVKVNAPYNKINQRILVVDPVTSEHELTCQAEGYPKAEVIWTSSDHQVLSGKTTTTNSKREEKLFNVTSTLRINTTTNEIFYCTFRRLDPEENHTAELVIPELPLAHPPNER

| Compound | IC50 |
| --- | --- |
| CN1CCc2c(-c3cccc4c3CCN4C(=O)c3nc4c(s3)CN(CC(=O)O)CC4)cccc21 [Example 1, 2-(2-(1′-methyl-[4,4′-biindoline]-1-carbonyl)-6,7-dihydrothiazolo[5,4-c]pyridin-5(4H)-yl)acetic acid] | 25 to 100 nM |
| Cc1c(OCCCN2CCC(O)C2)cccc1-c1cccc2c1CCN2C(=O)c1nc2c(n1C)CCNC2 (stereo not drawn) [Example 38, (4-(3-(3-(3-hydroxypyrrolidin-1-yl)propoxy)-2-methylphenyl)indolin-1-yl)(1-methyl-4,5,6,7-tetrahydro-1H-imidazo[4,5-c]pyridin-2-yl)methanone] | ≤ 25 nM |
| O=C(O)CN1CCc2nc(C(=O)N3CCc4c(-c5cccc(CCN6CCOCC6)c5)cccc43)sc2C1 [Example 19, 2-(2-(4-(3-(2-morpholinoethyl)phenyl)indoline-1-carbonyl)-6,7-dihydrothiazolo[5,4-c]pyridin-5(4H)-yl)acetic acid] | ≤ 25 nM |
| O=C(O)CCN1CCc2nc(C(=O)N3CCCc4c(-c5cccc(OCCN6CCOCC6)c5)cccc43)oc2C1 [Example 54, 3-(2-(5-(3-(2-morpholinoethoxy)phenyl)-1,2,3,4-tetrahydroquinoline-1-carbonyl)-6,7-dihydrooxazolo[5,4-c]pyridin-5(4H)-yl)propanoic acid] | 100 to 200 nM |
| O=C(O)CN1CCc2nc(C(=O)N3CCc4c(-c5cccc(OCCN6CCC(O)C6)c5)cccc43)sc2C1 (stereo not drawn) [Example 8, 2-(2-(4-(3-(2-(3-hydroxypyrrolidin-1-yl)ethoxy)phenyl)indoline-1-carbonyl)-6,7-dihydrothiazolo[5,4-c]pyridin-5(4H)-yl)acetic acid] | ≤ 25 nM |

Results, then the compound that gave them:

| IC50 | Compound |
| --- | --- |
| ≤ 25 nM | CC(=O)N1CCc2c(-c3cccc4c3CCN4C(=O)c3nc4c(s3)CN(CC(=O)O)CC4)cccc21 [Example 2, 2-(2-(1′-acetyl-[4,4′-biindoline]-1-carbonyl)-6,7-dihydrothiazolo[5,4-c]pyridin-5(4H)-yl)acetic acid] |
| ≤ 25 nM | Cc1c(NC(=O)c2nc3c(n2C)CNCC3)cccc1-c1cccc2c1CCN2C(=O)c1nc2c(s1)CN(CC(=O)O)CC2 [Example 31, 2-(2-(4-(2-methyl-3-(3-methyl-4,5,6,7-tetrahydro-3H-imidazo[4,5-c]pyridine-2-carboxamido)phenyl)indoline-1-carbonyl)-6,7-dihydrothiazolo[5,4-c]pyridin-5(4H)-yl)acetic acid] |
| ≤ 25 nM | O=C(O)CN1CCc2nc(C(=O)N3CCc4c(-c5cccc6c5CCN6CCCN5CCC(O)C5)cccc43)sc2C1 (stereo not drawn) [Example 11, 2-(2-(1′-(3-(3-hydroxypyrrolidin-1-yl)propyl)-[4,4′-biindoline]-1-carbonyl)-6,7-dihydrothiazolo[5,4-c]pyridin-5(4H)-yl)acetic acid] |
| ≤ 25 nM | Cc1c(OCCCN2CCOCC2)cccc1-c1cccc2c1CCN2C(=O)c1nc2c(o1)CN(CC(=O)O)CC2 [Example 23, 2-(2-(4-(2-methyl-3-(3-morpholinopropoxy)phenyl)indoline-1-carbonyl)-6,7-dihydrooxazolo[5,4-c]pyridin-5(4H)-yl)acetic acid] |
